Assays:
Test in all cases: Fluorescence dose-response of purified cpEGFP sensors (0.75 uM) in 100 mM Tris-HCl pH 7.5, room temperature, 1 mM ATP, 2.5 mM MgCl2; excitation 400, 460 or 480 nm by sensor, emission 510 nm; logistic five-parameter fit.
Assay type in all cases: biochemical
Settings in all cases: n = 3
GECFINDER-Phe1 = biological target: T1, GECFINDER-Phe1 (Aneurinibacillus migulanus, UniProt P0C061)
T1 construct: gene grsA; GrsA-PheA-PCP; cpEGFP inserted in hinge B, linkers CC-DR
Method: (§1) Fig. 3 Dose–response curves and fluorescence spectrums of […]s. a, c, e, g, i, k Dose–response curve of purified […]s with increasing concentrations of ligand in 100 mM Tris-HCl buffer (pH=7.5). The normalized ΔF/F0 value increased after ligand binding. All data shown are mean ± S.D. (n = 3 biologically independent samples). b, d, f, h, j, l The fluorescence spectra of […]s changed as the ligand concentration increased. All data shown are mean ± S.D. (n = 3 biologically independent samples). Source data are provided as a Source data file.
(§2) The study conducted dose–response curve, substrate specificity, and fluorescent spectrum analyses in 100-mM Tris buffer (pH = 7.5), while pH stability experiments were performed in 100-mM Tris buffer at three different pH values (6.5, 7.5, and 8.5) at room temperature. […] protein at a concentration of 0.75 μM, various small molecule concentrations, 1 mM ATP, and 2.5 mM MgCl2 were used in the experiments. Fluorescent signals were detected using a Microplate Reader (Synergy H4, Bio Tek) at an excitation/emission wavelength of 460 nm/510 nm or 480 nm/510 nm. The dose-response curve was determined immediately after the addition of the analyte. The total duration of the measurement was 15 min, with readings taken at one-minute intervals. The dose-response curve was plotted using the fluorescence values obtained after achieving stability in the fluorescence signal. The dose-response curves were fitted using the logistic model LOGISTIC5 available in Origin 2021, which could provide a more adequate fit to asymmetric dose-response data[62],[63]. Excitation spectra were scanned from 300 to 540 nm with a step size of 5 nm, and the emission wavelength was set to 560 nm. Emission spectra were scanned from 470 to 700 nm with a step size of 5 nm, and the excitation wavelength was set to 450 nm. The thermal stability of […] was analyzed using the UNcle multifunctional protein stability analysis system. Measurements were performed in 20 mM MOPS buffer with 2 mM DTT at a sample concentration of 1 mg/mL. Absolute fluorescence quantum yields were measured using an absolute photoluminescence quantum yield spectrometer (FS5, Edinburgh).

GECFINDER-Phe2 = biological target: T2, GECFINDER-Phe2 (Aneurinibacillus migulanus, UniProt P0C061)
T2 construct: gene grsA; GrsA-PheA-PCP; cpEGFP inserted in hinge B, linkers CV-LL
Method: as §1, §2

GECFINDER-Phe3 = biological target: T3, GECFINDER-Phe3 (Aneurinibacillus migulanus, UniProt P0C061)
T3 construct: gene grsA; GrsA-PheA-PCP; cpEGFP inserted in hinge B, linkers VF-QS
T3 sequence (P0C061 1-617): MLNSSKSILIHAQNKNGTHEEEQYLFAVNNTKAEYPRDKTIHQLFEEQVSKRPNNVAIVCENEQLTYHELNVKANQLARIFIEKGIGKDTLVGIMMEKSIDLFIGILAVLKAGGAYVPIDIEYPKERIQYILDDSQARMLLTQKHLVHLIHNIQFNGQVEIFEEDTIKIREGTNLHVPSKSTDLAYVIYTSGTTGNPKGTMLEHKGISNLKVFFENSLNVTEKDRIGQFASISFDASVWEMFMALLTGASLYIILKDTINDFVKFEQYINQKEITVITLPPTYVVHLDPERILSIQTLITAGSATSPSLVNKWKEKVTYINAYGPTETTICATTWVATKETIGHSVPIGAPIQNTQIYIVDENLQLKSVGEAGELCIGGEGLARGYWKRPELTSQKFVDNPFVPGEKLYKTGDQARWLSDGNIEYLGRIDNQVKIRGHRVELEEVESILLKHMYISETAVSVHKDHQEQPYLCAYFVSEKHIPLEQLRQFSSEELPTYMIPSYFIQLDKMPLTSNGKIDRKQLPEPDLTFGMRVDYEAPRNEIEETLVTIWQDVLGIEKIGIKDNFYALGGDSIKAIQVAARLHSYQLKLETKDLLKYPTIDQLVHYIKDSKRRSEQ
Method: as §1, §2

Molecule `N[C@@H](Cc1ccccc1)C(=O)O` [Phe, phenylalanine] has an EC50 (GECFINDER-Phe1) of 1550 ± 230 nM, an EC50 (GECFINDER-Phe2) of 1470 ± 150 nM and an EC50 (GECFINDER-Phe3) of 1910 ± 80 nM.

From publication PMC10590383, “Repurposing conformational changes in ANL superfamily enzymes to rapidly generate biosensors for organic and amino acids” (Nature Communications, 2023)
